Reference: patent publication US9162979B2, “1,5-Diary1-2-alkylpyrrole-3-substituted nitro esters, selective COX-2 inhibitors and nitric oxide donors” (ROTTAPHARM BIOTECH S.R.L., priority 2010, dated 2015)
Where a name gives a salt, the structure may show the parent alone.

| melting point [°C] | Structure (SMILES) |
| --- | --- |
| 102 | Cc1c(C(N)C(=O)OCCO)cc(-c2ccc(S(C)(=O)=O)cc2)n1-c1ccc(F)cc1 (racemic) [Example 16-II, (R,S)-2-(Hydroxy)ethyl-[2-amino-2-[1-(4-fluorophenyl)-2-methyl-5-(4-methylsulphonylphenyl)-pyrrol-3-yl]]-acetate] |
| 102 | Cc1c(C(N)C(=O)OCCO)cc(-c2ccc(S(C)(=O)=O)cc2)n1-c1cccc(F)c1 (racemic) [Example 17-II, (R,S)-2-(Hydroxy)ethyl-[2-amino-2-[1-(3-fluorophenyl)-2-methyl-5-(4-methylsulphonylphenyl)-1H-pyrrol-3-yl]]-acetate] |
| 117 | Cc1c(C(N)C(=O)OCCCO[N+](=O)[O-])cc(-c2ccc(S(C)(=O)=O)cc2)n1-c1cccc(F)c1 (racemic) [Example 19, (R,S)-3-(Nitrooxy)propyl-[2-amino-2-[1-(3-fluorophenyl)-2-methyl-5-(4-methylsulphonylphenyl)-1H-pyrrol-3-yl]]-acetate] |
| 110 | Cc1c(C(N)C(=O)OCCCCO[N+](=O)[O-])cc(-c2ccc(S(C)(=O)=O)cc2)n1-c1cccc(F)c1 (racemic) [Example 21, (R,S)-4-(Nitrooxy)butyl-[2-amino-2-[1-(3-fluorophenyl)-2-methyl-5-(4-methylsulphonylphenyl)-1H-pyrrol-3-yl]]-acetate] |
| 116 to 118 | Cc1c(CC(=O)OCCCO[N+](=O)[O-])cc(-c2ccc(S(C)(=O)=O)cc2)n1-c1ccccc1 [Example 6] |
| 126 to 128 | Cc1c(CC(=O)OCCCO[N+](=O)[O-])cc(-c2ccc(S(C)(=O)=O)cc2)n1-c1ccc(F)cc1 [Example 7, 3-(Nitrooxy)propyl 2-[1-(4-fluorophenyl)-2-methyl-5-(4-methylsulphonylphenyl)-1H-pyrrol-3-yl]acetate] |
| 127 | Cc1c(CC(=O)NCCCO[N+](=O)[O-])cc(-c2ccc(S(C)(=O)=O)cc2)n1-c1ccc(F)cc1 [Example 26, N-[(3-Nitroxy)propyl]-2-[1-(4-fluorophenyl)-2-methyl-5-(4-methylsulphonylphenyl)-1H-pyrrol-3-yl]acetamide] |

| Structure (SMILES) | melting point [°C] |
| --- | --- |
| Cc1c(CCOCCO[N+](=O)[O-])cc(-c2ccc(S(C)(=O)=O)cc2)n1-c1cccc(F)c1 (as salt: nitrate) [Example 38, 2-[2-[2-(1-(3-Fluorophenyl)-2-methyl-5-(4-methylsulphonylphenyl)-1H-pyrrol-3-yl]ethoxy]ethyl Nitrate] | 94 to 97 |
| Cc1c(CCOCCO[N+](=O)[O-])cc(-c2ccc(S(C)(=O)=O)cc2)n1-c1ccc(F)c(F)c1 (as salt: nitrate) [Example 39, 2-[2-[2-(1-(3,4-Difluorophenyl)-2-methyl-5-(4-methylsulphonylphenyl)-1H-pyrrol-3-yl]ethoxy]ethyl Nitrate] | 93 to 96 |
| Cc1c(CCOCCCO[N+](=O)[O-])cc(-c2ccc(S(C)(=O)=O)cc2)n1-c1ccccc1 (as salt: nitrate) [Example 40, 3-[2-[2-(1-Phenyl-2-methyl-5-(4-methylsulphonylphenyl)-1H-pyrrol-3-yl)ethoxy]propyl Nitrate] | 131 to 133 |
| Cc1c(CCOCCCO[N+](=O)[O-])cc(-c2ccc(S(C)(=O)=O)cc2)n1-c1ccc(F)cc1 (as salt: nitrate) [Example 41, 3-[2-[2-(1-(4-Fluorophenyl)-2-methyl-5-(4-methylsulphonylphenyl)-1H-pyrrol-3-yl)]ethoxy]propyl Nitrate] | 114 to 116 |
| Cc1c(CCOCCCO[N+](=O)[O-])cc(-c2ccc(S(C)(=O)=O)cc2)n1-c1cccc(F)c1 (as salt: nitrate) [Example 42, 3-[2-(1-(3-Fluorophenyl)-2-methyl-5-(4-methylsulphonylphenyl)-1H-pyrrol-3-yl)ethoxy]propyl Nitrate] | 111 to 113 |
